Reference: patent publication EP4722208A1, “NOVEL BENZAMIDE DERIVATIVE COMPOUND AND PHARMACEUTICAL COMPOSITION COMPRISING SAME” (Samjin Pharmaceutical Co., Ltd., priority 2023, dated 2024)

Key:
HCT-116 cell lines = experiment: Cellular NAD measurement assay (NAD/NADH-Glo Assay); type: cell-based; details: Homo sapiens; intracellular NAD+/NADH levels, HCT-116 cells, 24 hours treatment, 0.1 nM to 100 nM
Description: With regard to HCT-116 cell lines, the decrease in intracellular NAD+ and NADH levels due to the inhibition of NAMPT enzyme activity by compounds was evaluated using the product of NAD/NADH-Glo™ Assay (Promega, G9072) from Promega. The cells were incubated using DMEM (Gibco, 11995-065) medium containing 10% FBS. The HCT-116 cells were incubated for 24 hours after being distributed at a density of 2,500 cells per well in a 96-well plate, and were treated with a drug using a serum-free DMEM. First, a compound was dissolved in 100% dimethyl sulfoxide (DMSO), and then diluted in the culture medium so that the final concentration of DMSO might reach 0.5%, and treated with the drug. The final concentration range of the compounds was 0.1 nM to 100 nM. After that, they were further incubated for 24 hours at 37°C and CO2 5%. To conduct the NAD/NADH-Glo™ Assay, the culture medium of drug-treated cells was removed, and 50 µL of DPBS was treated per well, and left at room temperature for five minutes. The required amount of NAD/NADH-Glo™ Detection Reagent (Reconstituted Luciferin Detection Reagent 1 mL, Reductase 5 µL, Reductase Substrate 5 µL, NAD Cycling Enzyme 5 µL, NAD Cycling Substrate 25 µL) was prepared according to the manufacturer's manual and treated in an amount of 50 µL per well. After incubating for two minutes at 400 rpm in a plate shaker for cell lysis, the cells were incubated for 30 minutes at room temperature, and luminescence was measured. NAD+/NADH levels were calculated by subtracting the measurement value of the blank well without cells from the measurement value of all wells and taking the 0.5% DMSO-treated control as 100%.

[1] = biological target: T1, Recombinant NAMPT protein (Homo sapiens, UniProt P43490); experiment: NAMPT enzyme inhibition assay (BPS bioscience NAMPT Inhibitor Screening Assay Kit, fluorescence); type: biochemical; details: 30 min pre-incubation, 2 h at 30°C, compound 1000 nM to 3 nM, n=2
T1 construct: purchased BPS bioscience # 7176-1
T1 sequence (P43490 whole entry): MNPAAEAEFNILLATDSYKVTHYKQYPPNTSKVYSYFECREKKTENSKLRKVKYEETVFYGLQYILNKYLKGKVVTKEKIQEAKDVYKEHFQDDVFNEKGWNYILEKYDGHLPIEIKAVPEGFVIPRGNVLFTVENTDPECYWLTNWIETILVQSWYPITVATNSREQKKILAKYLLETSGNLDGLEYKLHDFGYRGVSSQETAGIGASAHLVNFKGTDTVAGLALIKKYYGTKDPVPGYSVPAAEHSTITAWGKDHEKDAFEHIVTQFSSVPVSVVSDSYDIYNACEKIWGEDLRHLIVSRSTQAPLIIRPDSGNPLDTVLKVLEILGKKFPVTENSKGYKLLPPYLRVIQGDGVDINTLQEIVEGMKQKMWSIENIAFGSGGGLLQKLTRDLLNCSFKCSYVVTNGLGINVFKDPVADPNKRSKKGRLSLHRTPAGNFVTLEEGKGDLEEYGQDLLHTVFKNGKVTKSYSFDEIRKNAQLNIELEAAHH
Description: The NAMPT enzyme activity inhibition ability of the compound of the present invention was evaluated using the NAMPT Inhibitor Screening Assay Kit (# 7176-1) from BPS bioscience. Recombinant NAMPT protein was added to each well of a black 96-well plate, and dilution buffer was added to a blank well instead of NAMPT protein. A 5 x concentrated compound solution was added and pre-incubated at room temperature (approximately 22°C) for 30 minutes before the start of the reaction so that the compound and protein might bind before the enzyme reaction. At this time, the concentration of NAMPT protein was adjusted and used according to the enzyme activity of each protein lot within the final concentration range of 4-10 ng/µl, and the test compound was serially diluted at a ratio of 1:3 from 1000 nM to 3 nM, and experiments were conducted with n=2 for about seven concentrations. A 2 x concentrated test buffer containing ATP (final concentration of 20 µM), nicotinamide (final concentration of 20 µM), phosphoribosyl pyrophosphate (PRPP, final concentration of 40 µM), and ethanol (final concentration of 1.5%) was added, and the plate was incubated at 30°C for two hours, after which the fluorescence of a resulting reaction product was measured with excitation of 340 nm and emission of 460 nm. The NAMPT enzyme activity (%) was calculated by subtracting the measurement value of the blank well without NAMPT protein from the measurement value of all wells, and then taking the measurement value of the control well without the compound as 100%.

[2] = tested on: HCT116 colorectal cancer cell lines; experiment: Tumor cytotoxicity assay (MTT); type: cell-based; details: Homo sapiens, HCT-116, HCT116 cells, 72 hours treatment, 0.1 nM to 1000 nM
Description: The anticancer efficacy of the compound of the present invention was evaluated using the MTT analysis method in HCT116 colorectal cancer cell lines. The cells were incubated using DMEM medium containing 10% FBS. The cells were distributed in a 96-well plate at a density of 2,500 cells per well, the HCT116 cells were incubated for 24 hours, and then treated with a drug using a serum free DMEM. First, a compound was prepared in 100% dimethyl sulfoxide (DMSO) at a concentration of 0.02 µM to 200 µM, diluted in the culture medium so that the final concentration of DMSO might reach 0.5%, and treated with the drug so that the final concentration of the compound might range from 0.1 nM to 1000 nM. After that, they were further incubated for 72 hours at 37°C and CO2 5% and treated with MTT (Sigma-Aldrich, M2128) to confirm cytotoxicity. Formazan produced from reduction by enzymes in the mitochondria of living cells was measured using Spark® Multimode Microplate Reader TECAN equipment. A cell viability (%) was relatively determined by subtracting a reference 650 nm optical density (O.D.) from 570 nm O.D., in which the 0.5% DMSO-treated control was set as a standard of 100%. […]

Compound | IC50 (HCT-116 cell lines) | IC50 [1] | CC50 [2]
Cn1ccc(CS(=O)(=O)c2ccc(C(=O)NCc3ccn4ccnc4c3)cc2C#Cc2ccc(N)cc2)n1 [compound 228, 3-((4-aminophenyl)ethynyl)-N-(imidazo[1,2-a]pyridin-7-ylmethyl)-4-(((1-methyl-1H-pyrazol-3-yl)methyl)sulfonyl)benzamide] | ≤ 0.01 µM | < 0.5 µM | ≤ 0.03 µM
Cn1ccc(CS(=O)(=O)c2ccc(C(=O)NCc3ccn4ccnc4c3)cc2C#Cc2cccc(C(=O)N3CCNCC3)c2)n1 [compound 230, N-(imidazo[1,2-a]pyridin-7-ylmethyl)-4-(((1-methyl-1H-pyrazol-3-yl)methyl)sulfonyl)-3-((3-(piperazine-1-carbonyl)phenyl)ethynyl)benzamide] | 0.01 to 1 µM | < 0.5 µM | 0.1 to 1 µM
Cn1ccc(CS(=O)(=O)c2ccc(C(=O)NCCCc3cn[nH]c3)cc2C#Cc2ccc(F)cc2)n1 [compound 1, N-(3-(1H-pyrazol-4-yl)propyl)-3-((4-fluorophenyl)ethynyl)-4-(((1-methyl-1H-pyrazol-3-yl)methyl)sulfonyl)benzamide] | ≤ 0.01 µM | < 0.5 µM | ≤ 0.03 µM
Cn1ccc(CS(=O)(=O)c2ccc(C(=O)NCc3ccn4ccnc4c3)cc2C#Cc2ccc(F)cc2)n1 [compound 2, 3-((4-fluorophenyl)ethynyl)-N-(imidazo[1,2-a]pyridin-7-ylmethyl)-4-(((1-methyl-1H-pyrazol-3-yl)methyl)sulfonyl)benzamide] | ≤ 0.01 µM | < 0.5 µM | ≤ 0.03 µM
O=C(NCCCc1cn[nH]c1)c1ccc(S(=O)(=O)Cc2ccn(-c3ccncc3)n2)c(C#Cc2ccc(F)cc2)c1 [compound 10, N-(3-(1H-pyrazol-4-yl)propyl)-3-((4-fluorophenyl)ethynyl)-4-(((1-(pyridin-4-yl)-1H-pyrazol-3-yl)methyl)sulfonyl)benzamide] | ≤ 0.01 µM | < 0.5 µM | ≤ 0.03 µM
O=C(NCc1ccn2ccnc2c1)c1ccc(S(=O)(=O)Cc2cc[nH]n2)c(C#Cc2ccc(F)cc2)c1 [compound 234, 4-(((1H-pyrazol-3-yl)methyl)sulfonyl)-3-((4-fluorophenyl)ethynyl)-N-(imidazo[1,2-a]pyridin-7-ylmethyl)benzamide] | – | < 0.5 µM | ≤ 0.03 µM
Cn1ccc(CS(=O)(=O)c2ccc(C(=O)NCc3ccn4ccnc4c3)cc2C#Cc2cccc(N)c2)n1 [compound 229, 3-((3-aminophenyl)ethynyl)-N-(imidazo[1,2-a]pyridin-7-ylmethyl)-4-(((1-methyl-1H-pyrazol-3-yl)methyl)sulfonyl)benzamide] | ≤ 0.01 µM | < 0.5 µM | ≤ 0.03 µM
